# Laboratory results published in the kinase profiling compilation of Christmann-Franck et al. (2016).
# Columns and labels:
# Test in all cases: radiometric filter-binding kinase assay, Kinaseprofiler
# [1] = tested on: HIPK2 (human), Q9H2X6 [I471N]; conditions: ATP 10 µM
# [2] = tested on: BLK (human), P51451 [M278V]; conditions: ATP 45 µM
# [3] = tested on: FLT4 (human), P35916 [V1128L/H1146R]; conditions: ATP 200 µM
# [4] = tested on: MET (human), P08581 [A1209G/V1290L]; conditions: ATP 45 µM
# [5] = tested on: PAK2 (human), Q13177 [L150F, P225T, V383I; A339 del]; conditions: ATP 90 µM
# [6] = tested on: PRKD1 (human), Q15139 [R135A]; conditions: ATP 45 µM
# [7] = tested on: TGFBR1 (human), P36897 [T204D]; conditions: ATP 10 µM
# Sequence of TGFBR1 (human), P36897 [T204D] (P36897 whole entry T204D, looked up): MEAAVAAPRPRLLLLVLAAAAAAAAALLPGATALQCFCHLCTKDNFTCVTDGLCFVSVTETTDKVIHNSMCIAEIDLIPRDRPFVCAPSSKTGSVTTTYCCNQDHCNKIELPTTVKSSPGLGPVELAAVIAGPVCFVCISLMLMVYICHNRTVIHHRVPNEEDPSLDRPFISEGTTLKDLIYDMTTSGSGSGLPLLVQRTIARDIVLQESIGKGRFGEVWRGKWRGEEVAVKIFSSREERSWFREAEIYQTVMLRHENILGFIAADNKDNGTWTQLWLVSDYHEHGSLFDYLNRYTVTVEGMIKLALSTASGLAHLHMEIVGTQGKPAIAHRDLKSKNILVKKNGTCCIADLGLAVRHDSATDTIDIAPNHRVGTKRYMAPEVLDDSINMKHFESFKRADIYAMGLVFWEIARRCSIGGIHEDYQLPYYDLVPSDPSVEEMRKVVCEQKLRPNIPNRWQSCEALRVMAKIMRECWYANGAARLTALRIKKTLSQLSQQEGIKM
# Sequence of FLT4 (human), P35916 [V1128L/H1146R] (P35916 whole entry, looked up, stated change not applied): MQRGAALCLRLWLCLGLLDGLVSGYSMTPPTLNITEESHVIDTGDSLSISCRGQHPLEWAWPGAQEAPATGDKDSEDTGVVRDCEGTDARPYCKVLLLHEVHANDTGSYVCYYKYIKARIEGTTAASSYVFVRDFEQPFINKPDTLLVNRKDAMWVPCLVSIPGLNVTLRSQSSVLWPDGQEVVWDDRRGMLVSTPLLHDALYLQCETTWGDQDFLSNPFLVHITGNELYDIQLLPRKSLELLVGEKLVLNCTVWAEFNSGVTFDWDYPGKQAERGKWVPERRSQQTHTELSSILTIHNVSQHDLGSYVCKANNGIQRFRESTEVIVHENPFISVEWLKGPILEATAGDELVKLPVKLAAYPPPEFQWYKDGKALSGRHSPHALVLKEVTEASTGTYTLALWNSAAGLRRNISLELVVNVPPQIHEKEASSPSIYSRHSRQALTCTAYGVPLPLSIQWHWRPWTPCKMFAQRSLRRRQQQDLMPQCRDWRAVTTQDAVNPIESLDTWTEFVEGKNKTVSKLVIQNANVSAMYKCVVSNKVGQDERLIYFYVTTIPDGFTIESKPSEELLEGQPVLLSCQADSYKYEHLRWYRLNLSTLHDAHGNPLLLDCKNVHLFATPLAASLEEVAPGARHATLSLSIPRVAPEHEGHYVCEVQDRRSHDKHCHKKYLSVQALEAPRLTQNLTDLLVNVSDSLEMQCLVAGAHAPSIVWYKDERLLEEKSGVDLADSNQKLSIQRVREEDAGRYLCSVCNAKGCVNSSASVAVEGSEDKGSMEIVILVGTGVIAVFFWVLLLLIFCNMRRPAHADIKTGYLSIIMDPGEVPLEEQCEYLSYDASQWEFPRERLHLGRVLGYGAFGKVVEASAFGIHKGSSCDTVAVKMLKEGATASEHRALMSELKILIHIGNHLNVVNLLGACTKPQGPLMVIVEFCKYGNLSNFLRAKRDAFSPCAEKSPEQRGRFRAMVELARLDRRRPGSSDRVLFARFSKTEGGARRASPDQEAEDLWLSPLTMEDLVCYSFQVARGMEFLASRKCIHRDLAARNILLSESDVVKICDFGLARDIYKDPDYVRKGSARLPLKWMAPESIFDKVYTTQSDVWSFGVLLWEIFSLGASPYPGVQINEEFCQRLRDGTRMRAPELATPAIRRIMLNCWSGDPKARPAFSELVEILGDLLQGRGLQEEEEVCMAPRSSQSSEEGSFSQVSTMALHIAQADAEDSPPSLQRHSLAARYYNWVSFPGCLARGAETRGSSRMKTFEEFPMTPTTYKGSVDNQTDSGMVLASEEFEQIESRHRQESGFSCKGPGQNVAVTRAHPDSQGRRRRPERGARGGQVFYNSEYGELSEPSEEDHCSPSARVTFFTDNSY
# Sequence of BLK (human), P51451 [M278V] (P51451 whole entry, looked up, stated change not applied): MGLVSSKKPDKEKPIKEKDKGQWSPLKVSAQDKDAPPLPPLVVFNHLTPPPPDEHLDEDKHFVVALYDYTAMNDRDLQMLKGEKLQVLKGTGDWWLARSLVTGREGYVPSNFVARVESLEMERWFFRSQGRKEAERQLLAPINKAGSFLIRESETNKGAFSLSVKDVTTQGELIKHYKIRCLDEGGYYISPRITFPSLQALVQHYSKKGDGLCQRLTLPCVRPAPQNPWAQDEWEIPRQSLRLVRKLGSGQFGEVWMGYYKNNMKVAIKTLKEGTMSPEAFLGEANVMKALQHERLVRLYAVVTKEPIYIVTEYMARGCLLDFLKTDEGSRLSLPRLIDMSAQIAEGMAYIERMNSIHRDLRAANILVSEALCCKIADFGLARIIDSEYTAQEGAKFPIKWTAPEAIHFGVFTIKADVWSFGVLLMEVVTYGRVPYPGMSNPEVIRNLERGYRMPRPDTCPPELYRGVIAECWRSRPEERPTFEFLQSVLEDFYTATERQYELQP
# Sequence of PAK2 (human), Q13177 [L150F, P225T, V383I; A339 del] (Q13177 whole entry, looked up, stated change not applied): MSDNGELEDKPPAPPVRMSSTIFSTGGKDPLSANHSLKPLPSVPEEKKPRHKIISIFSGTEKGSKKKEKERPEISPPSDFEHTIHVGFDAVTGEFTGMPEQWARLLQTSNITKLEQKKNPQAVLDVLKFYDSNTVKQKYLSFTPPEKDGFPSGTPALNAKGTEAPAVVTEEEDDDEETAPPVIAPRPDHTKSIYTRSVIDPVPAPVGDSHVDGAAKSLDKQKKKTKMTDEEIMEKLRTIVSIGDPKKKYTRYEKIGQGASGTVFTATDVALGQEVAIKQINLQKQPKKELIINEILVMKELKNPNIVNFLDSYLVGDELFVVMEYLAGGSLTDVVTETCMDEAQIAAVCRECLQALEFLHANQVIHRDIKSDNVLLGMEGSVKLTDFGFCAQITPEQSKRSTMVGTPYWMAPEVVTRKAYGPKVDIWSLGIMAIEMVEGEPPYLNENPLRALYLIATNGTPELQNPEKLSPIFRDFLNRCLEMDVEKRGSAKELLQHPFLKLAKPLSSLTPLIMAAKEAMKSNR
# Sequence of PRKD1 (human), Q15139 [R135A] (Q15139 whole entry, looked up, stated change not applied): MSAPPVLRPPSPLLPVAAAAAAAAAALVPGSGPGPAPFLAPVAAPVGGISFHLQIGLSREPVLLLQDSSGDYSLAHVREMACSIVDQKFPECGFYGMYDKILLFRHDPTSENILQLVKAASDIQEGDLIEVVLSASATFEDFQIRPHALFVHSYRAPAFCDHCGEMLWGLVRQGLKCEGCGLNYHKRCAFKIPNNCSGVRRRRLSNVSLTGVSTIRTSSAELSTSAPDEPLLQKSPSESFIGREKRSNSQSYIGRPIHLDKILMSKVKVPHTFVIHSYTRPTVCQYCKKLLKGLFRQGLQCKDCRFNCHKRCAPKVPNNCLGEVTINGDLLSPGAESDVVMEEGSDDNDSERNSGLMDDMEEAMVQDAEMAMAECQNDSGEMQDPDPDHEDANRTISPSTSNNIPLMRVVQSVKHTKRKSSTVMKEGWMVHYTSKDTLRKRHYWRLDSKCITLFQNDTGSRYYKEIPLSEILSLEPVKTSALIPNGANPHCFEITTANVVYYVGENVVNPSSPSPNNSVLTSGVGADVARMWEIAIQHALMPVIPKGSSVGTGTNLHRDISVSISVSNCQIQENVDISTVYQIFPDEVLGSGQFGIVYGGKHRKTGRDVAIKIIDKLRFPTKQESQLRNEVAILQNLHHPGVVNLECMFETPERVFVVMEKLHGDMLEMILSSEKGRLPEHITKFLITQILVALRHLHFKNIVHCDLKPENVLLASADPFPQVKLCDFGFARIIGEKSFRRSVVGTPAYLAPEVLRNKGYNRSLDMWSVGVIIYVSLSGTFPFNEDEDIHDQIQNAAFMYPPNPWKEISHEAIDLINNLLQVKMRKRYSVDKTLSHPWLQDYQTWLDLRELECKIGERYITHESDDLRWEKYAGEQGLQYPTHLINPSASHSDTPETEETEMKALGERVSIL
# Sequence of HIPK2 (human), Q9H2X6 [I471N] (Q9H2X6 whole entry, looked up, stated change not applied): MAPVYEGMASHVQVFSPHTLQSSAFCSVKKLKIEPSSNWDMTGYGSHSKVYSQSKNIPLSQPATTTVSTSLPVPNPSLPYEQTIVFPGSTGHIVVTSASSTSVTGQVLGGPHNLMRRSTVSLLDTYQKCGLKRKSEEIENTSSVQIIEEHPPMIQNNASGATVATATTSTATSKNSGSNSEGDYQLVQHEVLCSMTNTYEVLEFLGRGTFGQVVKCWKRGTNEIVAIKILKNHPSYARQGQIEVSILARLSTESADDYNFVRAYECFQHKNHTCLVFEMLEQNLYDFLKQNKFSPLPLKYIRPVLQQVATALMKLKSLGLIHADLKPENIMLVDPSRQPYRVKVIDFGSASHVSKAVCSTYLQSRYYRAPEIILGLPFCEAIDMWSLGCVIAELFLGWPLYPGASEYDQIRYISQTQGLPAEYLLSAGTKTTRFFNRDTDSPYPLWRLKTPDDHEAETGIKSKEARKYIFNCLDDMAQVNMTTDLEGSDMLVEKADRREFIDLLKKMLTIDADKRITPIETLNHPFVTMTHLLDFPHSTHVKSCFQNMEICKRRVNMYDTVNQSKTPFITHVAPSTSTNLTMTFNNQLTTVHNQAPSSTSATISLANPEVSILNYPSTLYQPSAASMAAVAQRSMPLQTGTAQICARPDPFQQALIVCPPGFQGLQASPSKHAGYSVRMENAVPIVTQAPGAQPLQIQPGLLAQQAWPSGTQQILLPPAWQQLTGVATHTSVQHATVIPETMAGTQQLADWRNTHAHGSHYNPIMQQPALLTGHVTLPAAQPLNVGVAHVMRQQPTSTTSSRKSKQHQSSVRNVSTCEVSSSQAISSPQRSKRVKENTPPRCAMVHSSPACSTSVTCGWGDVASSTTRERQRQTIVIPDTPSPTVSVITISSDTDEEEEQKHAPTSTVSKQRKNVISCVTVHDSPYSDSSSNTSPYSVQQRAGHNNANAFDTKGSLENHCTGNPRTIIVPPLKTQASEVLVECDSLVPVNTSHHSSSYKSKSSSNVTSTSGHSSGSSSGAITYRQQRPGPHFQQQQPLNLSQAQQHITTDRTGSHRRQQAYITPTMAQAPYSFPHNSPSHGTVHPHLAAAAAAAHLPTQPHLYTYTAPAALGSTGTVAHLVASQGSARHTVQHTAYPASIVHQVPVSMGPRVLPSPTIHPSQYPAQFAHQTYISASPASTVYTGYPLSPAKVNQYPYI
residual activity ([1]; compound 1.0 µM) [%],residual activity ([2]; compound 1.0 µM) [%],residual activity ([2]; compound 10.0 µM) [%],residual activity ([3]; compound 1.0 µM) [%],residual activity ([3]; compound 10.0 µM) [%],residual activity ([1]; compound 10.0 µM) [%],residual activity ([4]; compound 1.0 µM) [%],residual activity ([4]; compound 10.0 µM) [%],residual activity ([5]; compound 1.0 µM) [%],residual activity ([5]; compound 10.0 µM) [%],residual activity ([6]; compound 1.0 µM) [%],residual activity ([6]; compound 10.0 µM) [%],residual activity ([7]; compound 1.0 µM) [%],residual activity ([7]; compound 10.0 µM) [%],SMILES
48,11,0,-1,1,8,86,13,103,54,113,65,104,73,O=C1Nc2ccccc2/C1=C1\Nc2ccccc2\C1=N/O
55,97,45,2,0,15,87,75,96,86,32,-1,88,74,O=C1c2ccccc2-c2n[nH]c3cccc1c23
,,,,,,,,100,,,,,,O=C(Nc1cccc(Nc2nccc(Nc3cccc(C(F)(F)F)c3)n2)c1)C1CC1

SMILES,residual activity ([1]; compound 1.0 µM) [%],residual activity ([2]; compound 1.0 µM) [%],residual activity ([2]; compound 10.0 µM) [%],residual activity ([3]; compound 1.0 µM) [%],residual activity ([3]; compound 10.0 µM) [%],residual activity ([1]; compound 10.0 µM) [%],residual activity ([4]; compound 1.0 µM) [%],residual activity ([4]; compound 10.0 µM) [%],residual activity ([5]; compound 1.0 µM) [%],residual activity ([5]; compound 10.0 µM) [%],residual activity ([6]; compound 1.0 µM) [%],residual activity ([6]; compound 10.0 µM) [%],residual activity ([7]; compound 1.0 µM) [%],residual activity ([7]; compound 10.0 µM) [%]
CN[C@@H]1C[C@H]2O[C@@](C)([C@@H]1OC)n1c3ccccc3c3c4c(c5c6ccccc6n2c5c31)C(=O)NC4,52,,,,,,,,,,,,,
